Data on 4 compounds can be found in patent US12612371B2, “Sigma-1 receptor ligands and therapeutic uses thereof” (UNIVERSITE DE STRASBOURG, priority 2019, dated 2026).

The target of the test is T1, sigma 1 (h) (Homo sapiens, UniProt Q99720).
T1 construct: incubating Jurkat cell membranes (10-20 mg protein per tube) with [^3H](+) pentazocine; endogenous in cells; host or cells: Jurkat cell membranes
Nature of the test: σ1 binding assay ([3H](+)pentazocine displacement, Jurkat cell membranes). The settings on record: compound at 10 nM, [3H](+)pentazocine 15 nM, 37° C., 2 hours, read-out: Sigma-1 receptor % inhibition 10 nM. As for the experimental part: The σ1 binding assays were performed according to Ganapathy et al (Ganapathy, M. E. et al. (1999), J. Pharmacol. Exp. Ther., 28:251-260). The σ1 binding assay was carried out by incubating Jurkat cell membranes (10-20 mg protein per tube) with [^3H](+) pentazocine a selective S1R ligand (15 nM) and a range of concentration of tested compounds, at 37° C. for 2 hours in 5 mM tris/HCl buffer (pH=7.4). The inhibition of [3H]-(+)-pentazocine binding assay is mainly used to determine the inhibition constant (Ki) of potential SIR ligands. These assays are performed with a single concentration of [^3H]-(+)-pentazocine at a concentration near its KD and increasing concentrations of non-radioactive ligands.

A word on the inhibition: it is how much of the control response was suppressed.

Molecules are shown by their SMILES.

T1 sequence (Q99720 whole entry): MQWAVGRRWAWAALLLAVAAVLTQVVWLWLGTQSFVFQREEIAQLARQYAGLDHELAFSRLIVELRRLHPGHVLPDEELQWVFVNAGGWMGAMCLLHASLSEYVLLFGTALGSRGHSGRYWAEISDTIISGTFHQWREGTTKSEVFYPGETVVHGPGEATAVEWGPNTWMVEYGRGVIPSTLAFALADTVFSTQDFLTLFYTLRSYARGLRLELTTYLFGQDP

As to `O=c1c(-c2ccccc2)cncn1CCCCN1CCOCC1` [40b, 3-[4-(morpholin-4-yl)butyl]-5-phenyl-3,4-dihydropyrimidin-4-one], the inhibition at 0.01 µM was determined as 1.4%. As for `O=c1c(-c2ccccc2)cccn1CCCCN1CCOCC1` [41a, 1-[4-(morpholin-4-yl)butyl]-3-phenyl-1,2-dihydropyridin-2-one], the inhibition at 0.01 µM came to 3%. As for `O=c1cc(-c2ccccc2)cnn1CCCCN1CCOCC1` [compound 14, 2-(4-morpholinobutyl)-5-phenylpyridazin-3(2H)-one], the inhibition at 0.01 µM came to 2.1%. As to `O=c1c(-c2ccccc2)ccnn1CCCCN1C2CCC1CC(O)C2` (stereo not shown) [compound 16, 2-(4-(3-hydroxy-8-azabicyclo[3.2.1]octan-8-yl)butyl)-4-phenylpyridazin-3(2H)-one], the inhibition at 0.01 µM turned out to be 4.8%.
